{"source": "patent US20070212428A1", "about": "“METHODS AND COMPOSITIONS FOR TREATING MOOD DISORDER” (MOOD MANAGEMENT SCIENCES, INC., priority 2004, published 2007)", "key": {"[1]": {"conditions": "cited from earlier work; for elimination half-life: plasma"}, "[2]": {"system": "dopamine neuronal reuptake", "conditions": "cited from earlier work"}, "[3]": {"system": "norepinephrine neuronal reuptake", "conditions": "cited from earlier work"}, "[4]": {"system": "treatment resistant depression", "assay": "Example 11: case, treatment resistant depression", "assay_type": "in vivo, human", "conditions": "under prior psychiatrist"}, "[5]": {"system": "monoamine oxidase", "conditions": "cited from earlier work"}, "[6]": {"system": "5-HT1A and 5-HT1B receptors", "conditions": "cited from earlier work"}, "[7]": {"molecular_target": "histamine H1 receptor (Homo sapiens, UniProt P35367)", "sequence (P35367 whole entry, species assumed)": "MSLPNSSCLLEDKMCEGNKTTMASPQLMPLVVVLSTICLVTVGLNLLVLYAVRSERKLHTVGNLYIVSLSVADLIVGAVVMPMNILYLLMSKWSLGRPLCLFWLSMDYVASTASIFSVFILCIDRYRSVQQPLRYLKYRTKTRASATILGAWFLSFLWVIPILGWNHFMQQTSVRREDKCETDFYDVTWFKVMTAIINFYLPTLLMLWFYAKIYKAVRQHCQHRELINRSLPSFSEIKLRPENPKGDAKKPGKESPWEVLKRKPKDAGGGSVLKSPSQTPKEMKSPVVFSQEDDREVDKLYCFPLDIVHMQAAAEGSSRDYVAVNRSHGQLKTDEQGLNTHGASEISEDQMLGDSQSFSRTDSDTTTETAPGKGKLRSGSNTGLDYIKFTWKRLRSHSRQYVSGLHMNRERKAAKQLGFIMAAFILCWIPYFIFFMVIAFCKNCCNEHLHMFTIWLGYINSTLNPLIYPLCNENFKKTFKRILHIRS", "conditions": "cited from earlier work"}, "[8]": {"system": "serotonin 5-HT2 and 5-HT3 receptors", "conditions": "cited from earlier work"}, "[9]": {"system": "central presynaptic a2 adrenergic inhibitory autoreceptors and heteroreceptors", "conditions": "cited from earlier work"}, "[10]": {"system": "peripheral al adrenergic and muscarinic receptors", "conditions": "cited from earlier work"}, "[11]": {"system": "anxiety and depression", "conditions": "human, in vivo; cited from earlier work"}, "[12]": {"system": "treatment resistant depression", "assay_type": "in vivo, human", "conditions": "150 mg titrated up to 225 mg"}}}
{"smiles": "CC(NC(C)(C)C)C(=O)c1cccc(Cl)c1.Cl", "note": "(racemic) [bupropion, (±)-1-(3-chlorophenyl)-2-[(1,1-dimethylethyl)amino]-1-propanone hydrochloride]", "values": [{"measurement": "elimination half-life", "setting": "[1]", "result": "approximately 21 hours"}, {"measurement": "effect on dopamine reuptake (in words)", "setting": "[2]", "result": "relatively weak inhibitor"}, {"measurement": "effect on norepinephrine reuptake (in words)", "setting": "[3]", "result": "relatively weak inhibitor"}, {"measurement": "symptomatic success in MDD, first episode", "setting": "[4]", "result": "modest symptomatic success"}, {"measurement": "inhibition of monoamine oxidase", "setting": "[5]", "result": "does not inhibit"}]}
{"smiles": "CN1CCN2c3ncccc3Cc3ccccc3C2C1", "note": "(racemic) [mirtazapine, 1,2,3,4,10,14b-hexahydro-2-mehtylpryazino [2.1-a] pyrido [2,3-c] benzazepine]", "values": [{"measurement": "affinity", "setting": "[6]", "result": "no significant affinity"}, {"measurement": "functional activity", "setting": "[7]", "result": "potent antagonist"}, {"measurement": "functional activity", "setting": "[8]", "result": "potent antagonist"}, {"measurement": "functional activity", "setting": "[9]", "result": "antagonist"}, {"measurement": "functional activity", "setting": "[10]", "result": "moderate antagonist"}]}
{"smiles": "CNCCCC1c2ccccc2C=Cc2ccccc21.Cl", "note": "[protriptyline, N-methyl-5H-dibenzo[a,d]-cycloheptene-5-propanamine hydrochloride]", "values": [{"measurement": "time to significant plasma levels", "setting": "[1]; human, in vivo", "result": "≤ 2", "unit": "h"}, {"measurement": "oral absorption (in words)", "setting": "[1]; oral administration", "result": "well absorbed"}, {"measurement": "time to clinical effect", "setting": "[11]", "result": "one week"}]}
{"smiles": "CN[C@H]1CC[C@@H](c2ccc(Cl)c(Cl)c2)c2ccccc21.Cl", "note": "[sertraline, (1S-cis)-4-(3,4-dichlorophenyl)-1,2,3,4-tetrahydro-N-methyl-1-naphthylamine hydrochloride]", "values": [{"measurement": "reduction of elimination in elderly patients", "setting": "[1]; elderly patients", "result": "approximately 40%"}, {"measurement": "elimination half-life", "setting": "[1]", "result": "about 26 hours"}, {"measurement": "effect on dopamine reuptake (in words)", "setting": "[2]", "result": "weak effects"}, {"measurement": "effect on norepinephrine reuptake (in words)", "setting": "[3]", "result": "weak effects"}, {"measurement": "response of first episode of Treatment Resistant Depression", "setting": "[12]", "result": "partial response"}]}
